Data: PubChem BioAssay AID1963424 (Molecular Pharmacology Branch, DTP, NCI, 2024)

System: 327498-153-R-J2-PDC complex spheroid growth, % test/control
Test: Anticancer human tumor 327498-153-R-J2-PDC patient-derived uterine carcinosarcoma cell line growth inhibition [Asc]
Conditions: for IC50: curve of first compound; for viability, T/C: stronger effect = lower value
Outline: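 Stromal components (HUVEC and hMSC) are co-assembled with the cancer cells into multicellular spheroids. Drugs are then added singly or paired, at concentrations falling by half-log increments from a clinically achievable maximum, capped at 10 microM without known Cmax.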

[1] = second compound 0.01 µM, first compound 0.00316 µM
[2] = second compound 0.01 µM, first compound 0.01 µM
[3] = second compound 0.01 µM, first compound 0.0316 µM
[4] = second compound 0.01 µM, first compound 0.1 µM
[5] = second compound 0.01 µM, first compound 0.316 µM
[6] = second compound 0.01 µM, first compound 1 µM
[7] = second compound 0.0316 µM, first compound 0.00316 µM
[8] = second compound 0.0316 µM, first compound 0.01 µM
[9] = second compound 0.0316 µM, first compound 0.0316 µM
[10] = second compound 0.0316 µM, first compound 0.1 µM
[11] = second compound 0.0316 µM, first compound 0.316 µM
[12] = second compound 0.0316 µM, first compound 1 µM
[13] = second compound 0.1 µM, first compound 0.00316 µM
[14] = second compound 0.1 µM, first compound 0.01 µM
[15] = second compound 0.1 µM, first compound 0.0316 µM
[16] = second compound 0.1 µM, first compound 0.1 µM
[17] = second compound 0.1 µM, first compound 0.316 µM
[18] = second compound 0.1 µM, first compound 1 µM
[19] = second compound 0.316 µM, first compound 0.00316 µM
[20] = second compound 0.316 µM, first compound 0.01 µM
[21] = second compound 0.316 µM, first compound 0.0316 µM
[22] = second compound 0.316 µM, first compound 0.1 µM
[23] = second compound 0.316 µM, first compound 0.316 µM
[24] = second compound 0.316 µM, first compound 1 µM
[25] = second compound 1 µM, first compound 0.00316 µM
[26] = second compound 1 µM, first compound 0.01 µM
[27] = second compound 1 µM, first compound 0.0316 µM
[28] = second compound 1 µM, first compound 0.1 µM
[29] = second compound 1 µM, first compound 0.316 µM
[30] = second compound 1 µM, first compound 1 µM
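Also: spheroids exposed to compound for 7 days after 3 days of growth.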
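For viability, T/C in this document: 100% = DMSO vehicle control wells.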

For `CCN1CCN(Cc2ccc(Nc3ncc(F)c(-c4cc(F)c5nc(C)n(C(C)C)c5c4)n3)nc2)CC1` + CNC(C)C(=O)NC1CN(S(=O)(=O)c2cccc(S(=O)(=O)N3CCC4CCC(C(=O)NC(c5ccccc5)c5ccccc5)N4C(=O)C(NC(=O)C(C)NC)C3)c2)CCC2CCC(C(=O)NC(c3ccccc3)c3ccccc3)N2C1=O, the IC50 (second compound 0.01 µM) was over 1 µM, the IC50 (second compound 0.0316 µM) was over 1 µM and the IC50 (second compound 0.1 µM) was over 1 µM. For the same compound, the IC50 (second compound 0.316 µM) was over 1 µM, the IC50 (second compound 1 µM) was over 1 µM and the viability, T/C [1] was 102%. It also gave a viability, T/C [2] of 110%, a viability, T/C [3] of 97.7% and a viability, T/C [4] of 88.9%. The viability, T/C [5] was 68.7%, the viability, T/C [6] was 73.8% and the viability, T/C [7] was 106%. For the same compound, the viability, T/C [8] was 104%, the viability, T/C [9] was 90.5% and the viability, T/C [10] was 82.4%. For the same compound, the viability, T/C [11] was 61.2%, the viability, T/C [12] was 65% and the viability, T/C [13] was 99.4%. It also gave a viability, T/C [14] of 104%, a viability, T/C [15] of 94% and a viability, T/C [16] of 76.7%. The viability, T/C [17] was 68%, the viability, T/C [18] was 68.2% and the viability, T/C [19] was 110%. For the same compound, the viability, T/C [20] was 100%, the viability, T/C [21] was 95.5% and the viability, T/C [22] was 75.9%. For the same compound, the viability, T/C [23] was 65.8%, the viability, T/C [24] was 64.4% and the viability, T/C [25] was 106%. The viability, T/C [26] was 115%, the viability, T/C [27] was 91.6% and the viability, T/C [28] was 82.1%. It also gave a viability, T/C [29] of 73% and a viability, T/C [30] of 54.7%.
In the case of `NC(=O)C(=Cn1cnc(-c2cc(C(F)(F)F)cc(C(F)(F)F)c2)n1)c1cncnc1` + CNC(C)C(=O)NC1CN(S(=O)(=O)c2cccc(S(=O)(=O)N3CCC4CCC(C(=O)NC(c5ccccc5)c5ccccc5)N4C(=O)C(NC(=O)C(C)NC)C3)c2)CCC2CCC(C(=O)NC(c3ccccc3)c3ccccc3)N2C1=O, the IC50 (second compound 0.01 µM) is reported as 0.0386 µM, the IC50 (second compound 0.0316 µM) is reported as 0.0401 µM and the IC50 (second compound 0.1 µM) is reported as 0.0409 µM. The IC50 (second compound 0.316 µM) was 0.0409 µM, the IC50 (second compound 1 µM) was 0.046 µM and the viability, T/C (second compound 0.01 µM, first compound 0.000949 µM) was 93%. The viability, T/C (second compound 0.01 µM, first compound 0.003 µM) was 111%, the viability, T/C (second compound 0.01 µM, first compound 0.00949 µM) was 84.5% and the viability, T/C (second compound 0.01 µM, first compound 0.03 µM) was 63%. It also gave a viability, T/C (second compound 0.01 µM, first compound 0.0949 µM) of 12.1%, a viability, T/C (second compound 0.01 µM, first compound 0.3 µM) of 1.73% and a viability, T/C (second compound 0.0316 µM, first compound 0.000949 µM) of 90.1%. It also gave a viability, T/C (second compound 0.0316 µM, first compound 0.003 µM) of 91.5%, a viability, T/C (second compound 0.0316 µM, first compound 0.00949 µM) of 88% and a viability, T/C (second compound 0.0316 µM, first compound 0.03 µM) of 63.8%. It also gave a viability, T/C (second compound 0.0316 µM, first compound 0.0949 µM) of 9.05%, a viability, T/C (second compound 0.0316 µM, first compound 0.3 µM) of 1.71% and a viability, T/C (second compound 0.1 µM, first compound 0.000949 µM) of 92.8%. It also gave a viability, T/C (second compound 0.1 µM, first compound 0.003 µM) of 94.4%, a viability, T/C (second compound 0.1 µM, first compound 0.00949 µM) of 85.8% and a viability, T/C (second compound 0.1 µM, first compound 0.03 µM) of 65.4%. For the same compound, the viability, T/C (second compound 0.1 µM, first compound 0.0949 µM) was 9.53%, the viability, T/C (second compound 0.1 µM, first compound 0.3 µM) was 1.32% and the viability, T/C (second compound 0.316 µM, first compound 0.000949 µM) was 91.9%. It also gave a viability, T/C (second compound 0.316 µM, first compound 0.003 µM) of 91.8%, a viability, T/C (second compound 0.316 µM, first compound 0.00949 µM) of 88.4% and a viability, T/C (second compound 0.316 µM, first compound 0.03 µM) of 65%. It also gave a viability, T/C (second compound 0.316 µM, first compound 0.0949 µM) of 9.52%, a viability, T/C (second compound 0.316 µM, first compound 0.3 µM) of 1.32% and a viability, T/C (second compound 1 µM, first compound 0.000949 µM) of 102%. For the same compound, the viability, T/C (second compound 1 µM, first compound 0.003 µM) was 92.1%, the viability, T/C (second compound 1 µM, first compound 0.00949 µM) was 82.2% and the viability, T/C (second compound 1 µM, first compound 0.03 µM) was 75.2%. For the same compound, the viability, T/C (second compound 1 µM, first compound 0.0949 µM) was 7.78% and the viability, T/C (second compound 1 µM, first compound 0.3 µM) was 1.13%.
`O=C(c1ccc(F)c(F)c1Nc1ccc(I)cc1F)N1CC(O)([C@@H]2CCCCN2)C1` + CNC(C)C(=O)NC1CN(S(=O)(=O)c2cccc(S(=O)(=O)N3CCC4CCC(C(=O)NC(c5ccccc5)c5ccccc5)N4C(=O)C(NC(=O)C(C)NC)C3)c2)CCC2CCC(C(=O)NC(c3ccccc3)c3ccccc3)N2C1=O gave an IC50 (second compound 0.01 µM) of 0.391 µM, an IC50 (second compound 0.0316 µM) of 0.377 µM and an IC50 (second compound 0.1 µM) of 0.377 µM. It also gave an IC50 (second compound 0.316 µM) of 0.304 µM, an IC50 (second compound 1 µM) of 0.43 µM and a viability, T/C [1] of 97.4%. The viability, T/C [2] was 91.9%, the viability, T/C [3] was 81.7% and the viability, T/C [4] was 78.5%. For the same compound, the viability, T/C [5] was 55.7%, the viability, T/C [6] was 23.5% and the viability, T/C [7] was 104%. The viability, T/C [8] was 98.6%, the viability, T/C [9] was 89% and the viability, T/C [10] was 76.4%. The viability, T/C [11] was 55.7%, the viability, T/C [12] was 22.9% and the viability, T/C [13] was 104%. The viability, T/C [14] was 88%, the viability, T/C [15] was 85.8% and the viability, T/C [16] was 76.8%. For the same compound, the viability, T/C [17] was 56%, the viability, T/C [18] was 21.9% and the viability, T/C [19] was 105%. The viability, T/C [20] was 102%, the viability, T/C [21] was 77.7% and the viability, T/C [22] was 75.7%. The viability, T/C [23] was 48.2%, the viability, T/C [24] was 22.6% and the viability, T/C [25] was 104%. The viability, T/C [26] was 92.9%, the viability, T/C [27] was 92.3% and the viability, T/C [28] was 80.9%. For the same compound, the viability, T/C [29] was 62.5% and the viability, T/C [30] was 20%.
